Activity calls are given as the source filed them. The rule behind the calls is not given here.

What all share (format): functional, cell-based
Assay [1] relates to MDA-MB-231. Description: Phototoxicity against human MDA-MB-231 cells assessed as reduction in cell viability at 4 to 8 uM irradiated with 50 mW cm'-2 UV light for 6 mins and measured after 24 hrs by CCK8 assay. In general terms: Tetrazolium dyes change colour on reduction, which living cells bring about.
Assay [2] has as its system MDA-MB-231. Briefly: Cytotoxicity against human MDA-MB-231 cells assessed as reduction in cell viability at 4 to 8 uM measured after 24 hrs by CCK8 assay.
The test system of assay [3] is MDA-MB-231. Briefly: Phototoxicity against human MDA-MB-231 cells assessed as reduction in cell viability at 2 to 8 uM irradiated with 50 mW cm'-2 UV light for 6 mins and measured after 24 hrs by CCK8 assay.
Assay [4] deals with MDA-MB-231. Description: Cytotoxicity against human MDA-MB-231 cells assessed as reduction in cell viability at 2 to 8 uM measured after 24 hrs by CCK8 assay.

Take `COc1cccc2c1C(=O)c1c(O)c3c(c(O)c1C2=O)C[C@@](O)(C(=O)CO)C[C@@H]3O[C@H]1C[C@H](N)[C@H](O)[C@H](C)O1`: the result in the assay with MDA-MB-231 [1] and in the assay with MDA-MB-231 [2] was Active.
As for `COc1ccc(/C=C\c2cc(OC)c(OC)c(OC)c2)cc1O`, the outcome with MDA-MB-231 [3] and in the assay with MDA-MB-231 [4] was Active.

These data come from ChEMBL document CHEMBL4371066, “Synthesis and characterization of a photoresponsive doxorubicin/combretastatin A4 hybrid prodrug” (Bioorg Med Chem Lett, 2019).
